# “Also recorded” adds a separate entry of the source. Structures can show the parent of a compound that is named as a salt. Where two headings read alike, the source gives them in different places.
# Columns and labels:
# [1] = tested on: transplanted tumor in mice; type: in vivo, mouse; settings: for effect on the antineoplastic activity of low dose sildenafil: 2 mg/kg/day with sildenafil citrate 10 or 20 mg/kg/day; for tumor inhibition rate: 2 weeks; for toxicity / adverse reactions of the mice during the experimental period: citrate
# [2] = tested on: cultured tumor cells; test: growth of cultured tumor cells; type: cell-based; settings: 200 μM; citrate
# From the text: (§1) The antitneoplastic mechanism of sildenafil at low doses is not yet clear.
# (§2) The antitneoplastic mechanism of low dose sildenafil is not yet clear.
# [3] = tested on: cultured tumor cells; test: production of reactive oxygen species (ROS) in cultured tumor cells; type: cell-based; settings: 300 μM; citrate
# From the text: as §1, §2
# [4] = sildenafil concentration in the blood after oral intake by an adult patient; type: in vivo, human; settings: low oral doses (2-10 mg), estimated
# From the text: as §1, §2
# [5] = tested on: malignant tumors; test: general statement on low dose sildenafil: tumor growth inhibition in vivo and tolerability; settings: low dose: daily oral 0.04˜0.5 mg per 1 kg, injection 0.04˜0.2 mg per 1 kg or topical less than 1%; for toxicity or side effects: citrate
# From the text: It can be used to achieve effective control of tumor growth and improve the treatment of tumors.
# [6] = tested on: human hepatocellular carcinoma cell line (HEPG2); settings: 2 μM, citrate; cited from earlier work
# [7] = tested on: transplanted tumor of prostate cancer; settings: cited from earlier work
# [8] = tested on: transplanted tumor derived from liver cancer; settings: mouth-fed, combined with Stivarga (regorafenib); cited from earlier work
smiles,measurement,setting,value
CN(C)CCC(c1ccc(Cl)cc1)c1ccccn1 (stereo not drawn) [chlorphenamine maleate],effect on the antineoplastic activity of low dose sildenafil,[1],directly counteract the antineoplastic activity
same,effect on the antineoplastic activity of low dose sildenafil,[1]; listed as chlorphenamine malate,significantly counteracted the antineoplastic activity
"CCCc1nn(C)c2c(=O)[nH]c(-c3cc(S(=O)(=O)N4CCN(C)CC4)ccc3OCC)nc12.O=C(O)CC(O)(CC(=O)O)C(=O)O [sildenafil, 1-[[3-(6,7-Dihydro-1-methyl-7-oxo-3-propyl-1H-pyrazolo[4,3-d]pyrimidin-5-yl)-4-ethoxyphenyl]sulfonyl]-4-methylpiperazine citrate]",tumor inhibition rate,"[1]; 10 mg/kg/day, combined with chlorphenamine maleate 2 mg/kg/day",16%
same,tumor inhibition rate,"[1]; 20 mg/kg/day, combined with chlorphenamine maleate 2 mg/kg/day",7%
same,inhibitory effect on growth of the transplanted tumor,[1]; 50 mg/kg/day,no obvious inhibitory effects
same,tumor inhibition rate,"[1]; gavage 10 mg/kg/day, alone",63%
same,tumor growth inhibition rate,"[1]; gavage 10 mg/kg/day, 36 days, dissolved in 25% ethanol",68%
same,toxicity / adverse reactions of the mice during the experimental period,"[1]; gavage 10 mg/kg/day, 36 days, 10 mg/kg/day",no significant or observable toxicity reactions
same,toxicity / adverse reactions of the mice during the experimental period,"[1]; gavage 10 mg/kg/day, 36 days, listed as sildenafil citrate, 10 mg/kg/day",no significant or observable adverse reactions
same,tumor inhibition rate,"[1]; gavage 20 mg/kg/day, alone",50%
same,effect on the growth of cultured tumor cells,[2],direct inhibitory effect; also recorded: directly inhibited the growth
same,production of reactive oxygen species (ROS),[3],induced production of reactive oxygen species (ROS); also recorded: induce the production of reactive oxygen species (ROS)
same,drug concentration in the blood,[4],lower than 0.1 μM
same,inhibition rate of tumor growth,[5],more than 50%
same,toxicity or side effects,[5],does not produce significant toxicity or side effects
same,toxicity or side effects,[5]; listed as Sildenafil citrate,without significant toxic side effects
same,toxicity or side effects,[5]; listed as sildenafil citrate,without significant toxic side effects
same,expression of IkB nitro-tyrosine and apoptotic gene ligand Fas-L,[6],stimulate the expression
same,antineoplastic effect used alone,"[7]; alone at normal doses (25-100 mg), versus control group",not significant
same,growth of transplanted tumor of prostate cancer,"[7]; intraperitoneal injection, combined with Adriamycin (Doxorubicin)",significantly inhibit the growth
same,growth of transplanted tumor derived from liver cancer,[8],significantly inhibit the growth
